# Assay results as given in US20240067631A1, “PYRAZOLE DERIVATIVES USEFUL AS NAMPT MODULATORS” (Cytokinetics, Inc., priority 2020, published 2024).
# Molecular target: human NAMPT (Homo sapiens (Human), UniProt P43490)
# Experiment: Human recombinant enzyme assay (NMN fluorescence biochemical assay)
# Details: 6 nM human NAMPT, 60 min; for AC1.4 Human: concentration of compound that generates 40% higher activity over basal; for EC50: concentration that gives half-maximal activation
# Method: Compounds described herein were assayed for their ability to stimulate the synthesis of nicotinamide mononucleotide (NMN) by the enzyme NAMPT. The human recombinant enzyme assay measures the activation of the enzyme activity by compounds using recombinant enzyme and substrates in a buffered cell-free system. The assay conditions closely mimic cellular environments. Dose responses were measured using an assay to detect the formation of nicotinamide mono-nucleotide. All experiments were performed in the 384-well format. Generally, 0.5 μL of DMSO containing varying concentrations of the test compound was mixed with 10 μL of the enzyme reagent solution. Enzyme reactions were initiated with the addition of 10 μL of a solution containing the substrates. The final assay conditions were as follows: 6 nM human NAMPT, 2.5 mM ATP, […] in 50 mM HEPES, pH 7.2, 1 mM DTT, 1 mM CHAPS 50 mM NaCl, 100 mM MgCl2. Following an incubation of 60 min at ambient temperature, 10 μL of 20% acetophenone in DMSO was added, followed by 10 μL of 2 M KOH and 40 μL of formic acid. The plates were read for fluorescence (Excitation/Emission=355 nm/460 nm) using an EnVision plate reader after 40 mins of incubation at ambient temperature. The potency measurements for compounds, are quantified and represented as AC1.4 (the concentration of compounds that generates 40% higher activity over basal) and EC50 (concentration of the compound that gives half-maximal activation).
# human NAMPT, sequence (P43490 whole entry): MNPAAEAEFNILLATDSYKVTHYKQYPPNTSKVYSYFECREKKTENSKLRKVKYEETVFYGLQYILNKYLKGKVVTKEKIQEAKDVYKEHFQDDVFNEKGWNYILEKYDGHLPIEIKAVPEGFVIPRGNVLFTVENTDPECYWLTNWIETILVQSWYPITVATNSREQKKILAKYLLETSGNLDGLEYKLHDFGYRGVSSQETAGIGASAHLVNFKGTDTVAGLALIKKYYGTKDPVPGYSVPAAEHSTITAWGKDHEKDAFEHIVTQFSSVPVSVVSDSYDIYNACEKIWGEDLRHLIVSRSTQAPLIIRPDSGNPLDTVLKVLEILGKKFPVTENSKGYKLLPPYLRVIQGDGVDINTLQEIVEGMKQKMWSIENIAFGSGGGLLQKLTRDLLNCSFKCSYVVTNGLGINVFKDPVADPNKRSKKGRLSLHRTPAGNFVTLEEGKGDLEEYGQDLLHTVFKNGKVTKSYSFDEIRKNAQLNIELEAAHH
Structure (SMILES),AC1.4 Human [µM],EC50 [µM]
"Cc1nc(C(=O)N2CC(O)(c3ccccc3)C2)nc(N2CC[C@@H](c3cn[nH]c3)C2)c1C (single isomer, unassigned) [Compound 9]",0.044,0.633
"Cc1nc(C(N)=O)nc(N(CCc2ccccc2)CCc2cn[nH]c2)c1C [Compound 1, 4-((2-(1H-pyrazol-4-yl)ethyl)(phenethyl)amino)-5,6-dimethylpyrimidine-2-carboxamide]",0.003,0.131
"CNC(=O)c1nc(C)c(C)c(N(CCc2ccccc2)CCc2cn[nH]c2)n1 [Compound 2, 4-((2-(1H-pyrazol-4-yl)ethyl)(phenethyl)amino)-N,5,6-trimethylpyrimidine-2-carboxamide]",0.007,0.155
"Cc1nc(C(=O)N2CC(O)(c3cccc(F)c3)C2)nc(NCCc2cn[nH]c2)c1C [Compound 3, (4-((2-(1H-pyrazol-4-yl)ethyl)amino)-5,6-dimethylpyrimidin-2-yl)(3-(3-fluorophenyl)-3-hydroxyazetidin-1-yl)methanone]",0.0165,0.653
"Cc1nc(C(=O)N2CCC(c3c[nH]c4ccccc34)CC2)nc(NCCc2cn[nH]c2)c1C [Compound 6, (4-(1H-indol-3-yl)piperidin-1-yl)(4-((2-(1H-pyrazol-4-yl)ethyl)amino)-5,6-dimethylpyrimidin-2-yl)methanone]",0.0385,1.84
"Cc1nc(C(=O)N2CCOCC2c2cccc(Cl)c2)nc(NCCc2cn[nH]c2)c1C (stereo not shown) [Compound 12, (4-((2-(1H-pyrazol-4-yl)ethyl)amino)-5,6-dimethylpyrimidin-2-yl)(3-(3-chlorophenyl)morpholino)methanone]",0.048,0.514
"Cc1nc(C(=O)N2CC(c3cccc(F)c3)C2)nc(NCCc2cn[nH]c2)c1C [Compound 18, (4-((2-(1H-pyrazol-4-yl)ethyl)amino)-5,6-dimethylpyrimidin-2-yl)(3-(3-fluorophenyl)azetidin-1-yl)methanone]",0.0745,0.597
"Cc1nc(C(=O)NCc2cccs2)nc(NCCc2cn[nH]c2)c1C [Compound 19, 4-((2-(1H-pyrazol-4-yl)ethyl)amino)-5,6-dimethyl-N-(thiophen-2-ylmethyl)pyrimidine-2-carboxamide]",0.075,0.499
"Cc1nc(C(=O)N2CCOCC2(C)c2ccccc2)nc(NCCc2cn[nH]c2)c1C (stereo not shown) [Compound 25, (4-((2-(1H-pyrazol-4-yl)ethyl)amino)-5,6-dimethylpyrimidin-2-yl)(3-methyl-3-phenylmorpholino)methanone]",0.106,0.872
"Cc1nc(C(=O)N2CCC(F)(F)CC2c2ccccc2)nc(NCCc2cn[nH]c2)c1C (stereo not shown) [Compound 28, (4-((2-(1H-pyrazol-4-yl)ethyl)amino)-5,6-dimethylpyrimidin-2-yl)(4,4-difluoro-2-phenylpiperidin-1-yl)methanone]",0.144,1.36
"Cc1nc(C(=O)N(C)[C@@H](C)c2ccccc2Cl)nc(NCCc2cn[nH]c2)c1C [Compound 29, (S)-4-((2-(1H-pyrazol-4-yl)ethyl)amino)-N-(1-(2-chlorophenyl)ethyl)-N,5,6-trimethylpyrimidine-2-carboxamide]",0.1725,1.87
"Cc1nc(C(=O)N2CCC(O)(c3ccccc3)CC2)nc(NCCc2cn[nH]c2)c1C [Compound 34, (4-((2-(1H-pyrazol-4-yl)ethyl)amino)-5,6-dimethylpyrimidin-2-yl)(4-hydroxy-4-phenylpiperidin-1-yl)methanone]",2.839,17.7
"Cc1cccnc1[C@@H](C)NC(=O)c1nc(C)c(C)c(NCCc2cn[nH]c2)n1 [Compound 37, (R)-4-((2-(1H-pyrazol-4-yl)ethyl)amino)-5,6-dimethyl-N-(1-(3-methylpyridin-2-yl)ethyl)pyrimidine-2-carboxamide]",0.2055,1.19
"Cc1nc(C(=O)N2C[C@H](c3ccccc3)[C@@H](O)C2)nc(NCCc2cn[nH]c2)c1C [Compound 42, (4-((2-(1H-pyraazol-4-yl)ethyl)amino)-5,6-dimethylpyrimidin-2-yl)((3R,4S)-3-hydroxy-4-phenylpyrrolidin-1-yl)methanone]",0.265,2.92
"COc1cccc([C@@H](C)NC(=O)c2nc(C)c(C)c(NCCc3cn[nH]c3)n2)n1 [Compound 43, (R)-4-((2-(1H-pyrazol-4-yl)ethyl)amino)-N-(1-(6-methoxypyridin-2-yl)ethyl)-5,6-dimethylpyrimidine-2-carboxamide]",0.273,0.827
"Cc1nc(C(=O)N2CCN(C)CC2c2ccccc2)nc(NCCc2cn[nH]c2)c1C (stereo not shown) [Compound 44, (4-((2-(1H-pyrazol-4-yl)ethyl)amino)-5,6-dimethylpyrimidin-2-yl)(4-methyl-2-phenylpiperazin-1-yl)methanone]",0.275,1.84

# Next, values leading:
AC1.4 Human [µM],EC50 [µM],Structure (SMILES)
0.0325,0.182,"Cc1nc(C(=O)N[C@@H](C)c2cccs2)nc(NCCc2cn[nH]c2)c1C [Compound 8, (S)-4-((2-(1H-pyrazol-4-yl)ethyl)amino)-5,6-dimethyl-N-(1-(thiophen-2-yl)ethyl)pyrimidine-2-carboxamide]"
0.0465,0.282,"Cc1nc(C(=O)NC(C)(C)c2cccc(F)c2)nc(NCCc2cn[nH]c2)c1C [Compound 11, 4-((2-(1H-pyrazol-4-yl)ethyl)amino)-N-(2-(3-fluorophenyl)propan-2-yl)-5,6-dimethylpyrimidine-2-carboxamide]"
0.192,1.61,"Cc1nc(C(=O)NCc2ccccc2)nc(NCCc2cn[nH]c2)c1C [Compound 31, 4-((2-(1H-pyrazol-4-yl)ethyl)amino)-N-benzyl-5,6-dimethylpyrimidine-2-carboxamide]"
0.193,0.929,"Cc1nc(C(=O)NCc2cccc(F)c2)nc(NCCc2cn[nH]c2)c1C [Compound 32, 4-((2-(1H-pyrazol-4-yl)ethyl)amino)-N-(3-fluorobenzyl)-5,6-dimethylpyrimidine-2-carboxamide]"
0.2615,1.38,"Cc1nc(C(=O)NC(c2ccccc2)C(F)(F)F)nc(NCCc2cn[nH]c2)c1C (stereo not shown) [Compound 33, 4-((2-(1H-pyrazol-4-yl)ethyl)amino)-5,6-dimethyl-N-(2,2,2-trifluoro-1-phenylethyl)pyrimidine-2-carboxamide]"
0.231,0.617,Cc1nc(C(=O)N[C@H](C)c2ccsc2)nc(NCCc2cn[nH]c2)c1C [Compound 35]
0.2015,0.882,"Cc1nc(C(=O)NC(C)c2cccc(Cl)n2)nc(NCCc2cn[nH]c2)c1C (stereo not shown) [Compound 36, 4-((2-(1H-pyrazol-4-yl)ethyl)amino)-N-(1-(6-chloropyridin-2-yl)ethyl)-5,6-dimethylpyrimidine-2-carboxamide]"
0.1635,3.83,"Cc1nc(C(=O)N2CCC[C@@H]2c2ccccc2)nc(NCCc2cn[nH]c2)c1C [Compound 38, (R)-(4-((2-(1H-pyrazol-4-yl)ethyl)amino)-5,6-dimethylpyrimidin-2-yl)(2-phenylpyrrolidin-1-yl)methanone]"
0.21,1.51,"Cc1nc(C(=O)N[C@H](C)c2cccc(F)c2)nc(NCCc2cn[nH]c2)c1C [Compound 39, (R)-4-((2-(1H-pyrazol-4-yl)ethyl)amino)-N-(1-(3-fluorophenyl)ethyl)-5,6-dimethylpyrimidine-2-carboxamide]"
0.214,1.27,"Cc1nc(C(=O)NC(c2ccccc2)c2nccn2C)nc(NCCc2cn[nH]c2)c1C (stereo not shown) [Compound 40, 4-((2-(1H-pyrazol-4-yl)ethyl)amino)-5,6-dimethyl-N-((1-methyl-1H-imidazol-2-yl)(phenyl)methyl)pyrimidine-2-carboxamide]"
0.2615,2.87,"Cc1nc(C(=O)NC(C)(C)Cc2cccc(F)c2)nc(NCCc2cn[nH]c2)c1C [Compound 41, 4-((2-(1H-pyrazol-4-yl)ethyl)amino)-N-(1-(3-fluorophenyl)-2-methylpropan-2-yl)-5,6-dimethylpyrimidine-2-carboxamide]"
0.2845,2.35,"Cc1nc(C(=O)NC(c2cccc(F)c2)c2ccccn2)nc(NCCc2cn[nH]c2)c1C (stereo not shown) [Compound 46, 4-((2-(1H-pyrazol-4-yl)ethyl)amino)-N-((3-fluorophenyl)(pyridin-2-yl)methyl)-5,6-dimethylpyrimidine-2-carboxamide]"
0.2915,2,"Cc1nc(C(=O)N[C@H](C)c2ccccn2)nc(NCCc2cn[nH]c2)c1C [Compound 47, (R)-4-((2-(1H-pyrazol-4-yl)ethyl)amino)-5,6-dimethyl-N-(1-(pyridin-2-yl)ethyl)pyrimidine-2-carboxamide]"
